Patent US9629919B2, “Drug delivery of temozolomide for systemic based treatment of cancer” (CEDARS-SINAI MEDICAL CENTER, priority 2009, dated 2017)
Entries after “also recorded” stand apart in the source; their conditions may differ.

What was measured:
[1] = test system: MDA-MB-231; assay: Cell viability (MTS); format: cell-based, human; details: MDA-MB-231, 24 h exposure, viability on day 7, untreated = 100%
Method: (§1) Primary glioma cell lines U87MG and T98G, and invasive breast carcinoma cell lines MDA-MB-231 and MDA-MB-468 were obtained from American Type Culture Collection (ATCC, Manassas, Va., USA) USA. U87MG and T98G cells were cultured in MEM supplemented with 10% fetal bovine serum, 1% MEM NEAA, 1 mM sodium pyruvate and 2 mM L-glutamine. For MDA-MB-231 and MDA-MB-468, Leibovitz's L-15 medium with 10% fetal bovine serum was used. Cells were seeded at 10^3 per well (0.1 ml) in 96-well flat-bottomed plates and incubated overnight at 37° C. in humid atmosphere with 5% CO2 (MDA-MB-231 and MDA-MB-468 were incubated without CO2). After exposure to synthesized conjugates for 24 h, medium was replaced every 48 h. Cell viability was measured on day 5 for T98G and day 7 for the rest of the cell lines using the CELLTITER 96 Aqueous One Solution Cell Proliferation Assay kit (Cat. No. PR-G3580; Promega, Madison, Wis., USA). Yellow [3-(4,5-dimethylthiazol-2-yl)-5-(3-carboxymethoxyphenyl)-2-(4-sulfophenyl-)-2H-tetrazolium, inner salt] (MTS) is bioreduced by cells into formazan that is soluble in the tissue culture medium. The absorbance reading at 490 nm from the 96-well plates is directly proportional to the number of living cells (32). The viability of the untreated cells was taken as 100%. The results shown are the means±standard deviation of three independent measurements. Data were analyzed by statistical software GRAPHPAD PRISM 3.0.

[2] = test system: U87MG; assay: Cell viability (MTS); format: cell-based, human
Method: as §1

[3] = test system: MDA-MB-468; assay: Cell viability (MTS); format: cell-based, human; details: MDA-MB-468, 24 h exposure, viability on day 7, untreated = 100%
Method: as §1

[4] = test system: T98G; assay: Cell viability (MTS); format: cell-based, human; details: 24 h exposure, viability on day 5, untreated = 100%
Method: as §1

[5] = physchem; format: physicochemical; details: buffer, pH 7.4
Method: The conjugation reaction of PMLA with PEG, TMZH, LLL and LOEt was followed by thin layer chromatography (TLC) on precoated silica gel 60 F254 aluminum sheets (Merck, Darmstadt, Germany) and visualization of spots by UV light and/or by ninhydrin staining. The concentration of free or conjugated TMZH was monitored by reading A328 and using known amounts of TMZ or TMZH standards. Size exclusion chromatography was performed on LACHROM ELITE, an analytical High Performance Liquid Chromatograph (HPLC) system with Diode Array Detector L 2455 (Hitachi, Pleasanton, Calif., USA), and Mw was measured using BioSep-SEC-S 3000 (300×7.80 mm) (Phenomenex, Torrance, Calif., USA) with 50 mM sodium phosphate buffer pH 6.8 and polystyrene sulfonates as molecular weight standards. Thiol residues attached to PMLA were assayed by the method of Ellman. Enzyme-linked immunosorbent assay (ELISA) was used to determine the functional activity of conjugated antibody using a Protein Detector ELISA Kit (KPL, Inc., Gaithersburg, Mass., USA). Human TfR ectodomain used as antigen was obtained from Protein Expression Center, California Institute of Technology, Pasadena, USA.
TMZ is a prodrug and undergoes spontaneous conversion to the active alkylating agent at neutral or alkaline pH. Half-lives were measured at physiological pH 7.4 in PBS and summarized in Table I. The decomposition of free and conjugated TMZH by hydrolytic ring opening (Chart 1) was a first order reaction for free TMZ or TMZH and conjugated TMZH (data not shown). […] Similar data have been reported for TMZ conjugated with small carbon chains (6). No detectable decomposition was observed during 24 h at pH 5.0 at RT.

Row | SMILES | effect on cell viability [1] | effect on cell viability ([2]; 24 h exposure, viability on day 7, untreated = 100%) | order of increasing potency on cell viability ([2]; FIG. 6a) | effect on cell viability [3] | effect on cell viability [4] | Half-life of TMZ [5] | half-life [5]
1 | Cn1nnc2c(C(N)=O)ncn2c1=O [TMZ, temozolomide] | inactive; also recorded: did not change | stronger effect on U87MG cells than the nanoconjugates; also recorded: responded | P/PEG(2%)/LLL(40%)/TMZH(17%)/IgG(0.25%)<P/PEG(2%)/LLL(40%)/TMZH(17%)<P/PEG(2%)/LLL(40%)/TMZH(17%)/HuTfR mAb(0.25%)<TMZ | inactive; also recorded: ineffective at all concentrations below 130 μM; also recorded: did not change | inactive; also recorded: did not change | 1.8 h | 1.8 ± 0.1 h
2 | Cn1nnc2c(C(=O)NN)ncn2c1=O [TMZH, temozolomide hydrazide] | – | – | – | – | – | – | 1.98 ± 0.1 h
